Key:
Assay in all cases: relative viability (nuclei count vs DMSO), 5 days (fraction); higher = more cells survive
[1] = tested on: NCI-H1355
Method in brief: (§1)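 Values are medians from duplicate plates. Each reflects relative viability, defined as the nuclei count of treated wells over that of vehicle wells. Lung cancer cell lines in 1536-well plates were pin-tool dosed one day after seeding with one drug alone or with a fixed anchor-drug dose plus five library-drug doses (not always all listed) in √10 steps, then fixed, stained and imaged at 4× after 5 days.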

[2] = tested on: ABC-1
Method in brief: as §1

[3] = tested on: NCI-H1993
Method in brief: as §1

[4] = tested on: CAL-12T
Method in brief: as §1

[5] = tested on: 201T
Method in brief: as §1

[6] = tested on: NCI-H322M
Method in brief: as §1

[7] = tested on: NCI-H2170
Method in brief: as §1

[8] = tested on: HCC-44
Method in brief: as §1

[9] = tested on: NCI-H647
Method in brief: as §1

[10] = tested on: NCI-H1395
Method in brief: as §1

[11] = tested on: NCI-H661
Method in brief: as §1

[12] = tested on: NCI-H2347
Method in brief: as §1

[13] = tested on: COR-L23
Method in brief: as §1

[14] = tested on: LC-2-ad
Method in brief: as §1

[15] = tested on: HOP-62
Method in brief: as §1

[16] = tested on: NCI-H520
Method in brief: as §1

[17] = tested on: NCI-H2228
Method in brief: as §1

[18] = tested on: NCI-H1651
Method in brief: as §1

[19] = tested on: NCI-H2085
Method in brief: as §1

[20] = tested on: NCI-H838
Method in brief: as §1

[21] = tested on: NCI-H1666
Method in brief: as §1

[22] = tested on: NCI-H23
Method in brief: as §1

In the case of `O=c1[nH]c2ccccc2n1C1CCN(CCCC(c2ccc(F)cc2)c2ccc(F)cc2)CC1` [Pimozide] + CS(=O)(=O)CCNCc1ccc(-c2ccc3ncnc(Nc4ccc(OCc5cccc(F)c5)c(Cl)c4)c3c2)o1 [Lapatinib] (partner 2 µM), the relative viability ([1]; first compound 0.08 µM) is reported as 1.02, the relative viability ([1]; first compound 0.253 µM) is reported as 1.09 and the relative viability ([1]; first compound 0.8 µM) is reported as 0.933. It also gave a relative viability ([1]; first compound 2.53 µM) of 0.939, a relative viability ([1]; first compound 8 µM) of 0.982 and a relative viability ([2]; first compound 0.08 µM) of 1.18. For the same compound, the relative viability ([2]; first compound 0.253 µM) was 0.951, the relative viability ([2]; first compound 0.8 µM) was 1.13 and the relative viability ([2]; first compound 2.53 µM) was 1.16. The relative viability ([2]; first compound 8 µM) was 1.22, the relative viability ([3]; first compound 0.08 µM) was 0.894 and the relative viability ([3]; first compound 0.253 µM) was 0.714. It also gave a relative viability ([3]; first compound 0.8 µM) of 0.697, a relative viability ([3]; first compound 2.53 µM) of 0.788 and a relative viability ([3]; first compound 8 µM) of 0.901. The relative viability ([4]; first compound 0.08 µM) was 0.57, the relative viability ([4]; first compound 0.253 µM) was 0.588 and the relative viability ([4]; first compound 0.8 µM) was 0.551. For the same compound, the relative viability ([4]; first compound 2.53 µM) was 0.538, the relative viability ([4]; first compound 8 µM) was 0.625 and the relative viability ([5]; first compound 0.08 µM) was 1.01. For the same compound, the relative viability ([5]; first compound 0.253 µM) was 1.05, the relative viability ([5]; first compound 0.8 µM) was 1.01 and the relative viability ([5]; first compound 2.53 µM) was 0.995. It also gave a relative viability ([5]; first compound 8 µM) of 0.926, a relative viability ([6]; first compound 0.253 µM) of 0.56 and a relative viability ([6]; first compound 0.8 µM) of 0.584. For the same compound, the relative viability ([6]; first compound 2.53 µM) was 0.635, the relative viability ([6]; first compound 8 µM) was 0.525 and the relative viability ([7]; first compound 0.08 µM) was 0.277. It also gave a relative viability ([7]; first compound 0.253 µM) of 0.278, a relative viability ([7]; first compound 0.8 µM) of 0.276 and a relative viability ([7]; first compound 2.53 µM) of 0.283. The relative viability ([7]; first compound 8 µM) was 0.272, the relative viability ([8]; first compound 0.08 µM) was 0.952 and the relative viability ([8]; first compound 0.253 µM) was 1.08. The relative viability ([8]; first compound 0.8 µM) was 0.975, the relative viability ([8]; first compound 2.53 µM) was 0.96 and the relative viability ([8]; first compound 8 µM) was 0.888. For the same compound, the relative viability ([9]; first compound 0.08 µM) was 1.18, the relative viability ([9]; first compound 0.253 µM) was 1.03 and the relative viability ([9]; first compound 0.8 µM) was 0.973. The relative viability ([9]; first compound 2.53 µM) was 0.964, the relative viability ([9]; first compound 8 µM) was 0.58 and the relative viability ([10]; first compound 0.08 µM) was 0.966. For the same compound, the relative viability ([10]; first compound 0.253 µM) was 1.17, the relative viability ([10]; first compound 0.8 µM) was 1.06 and the relative viability ([10]; first compound 2.53 µM) was 0.756. The relative viability ([10]; first compound 8 µM) was 0.838, the relative viability ([11]; first compound 0.08 µM) was 0.46 and the relative viability ([11]; first compound 0.253 µM) was 0.464. The relative viability ([11]; first compound 0.8 µM) was 0.451, the relative viability ([11]; first compound 2.53 µM) was 0.413 and the relative viability ([11]; first compound 8 µM) was 0.467. The relative viability ([12]; first compound 0.08 µM) was 0.834, the relative viability ([12]; first compound 0.253 µM) was 0.92 and the relative viability ([12]; first compound 0.8 µM) was 0.771. The relative viability ([12]; first compound 2.53 µM) was 0.926, the relative viability ([12]; first compound 8 µM) was 0.978 and the relative viability ([13]; first compound 0.08 µM) was 0.99. For the same compound, the relative viability ([13]; first compound 0.253 µM) was 0.856, the relative viability ([13]; first compound 0.8 µM) was 0.881 and the relative viability ([13]; first compound 2.53 µM) was 0.914. It also gave a relative viability ([13]; first compound 8 µM) of 0.862, a relative viability ([14]; first compound 0.08 µM) of 0.943 and a relative viability ([14]; first compound 0.253 µM) of 0.918. For the same compound, the relative viability ([14]; first compound 0.8 µM) was 0.918, the relative viability ([14]; first compound 2.53 µM) was 0.949 and the relative viability ([14]; first compound 8 µM) was 0.6. It also gave a relative viability ([15]; first compound 0.08 µM) of 0.917, a relative viability ([15]; first compound 0.253 µM) of 1.09 and a relative viability ([15]; first compound 2.53 µM) of 0.995. The relative viability ([15]; first compound 8 µM) was 1.06, the relative viability ([16]; first compound 0.08 µM) was 0.863 and the relative viability ([16]; first compound 0.253 µM) was 0.922. It also gave a relative viability ([16]; first compound 0.8 µM) of 0.621, a relative viability ([16]; first compound 2.53 µM) of 0.821 and a relative viability ([16]; first compound 8 µM) of 0.776. It also gave a relative viability ([17]; first compound 0.08 µM) of 1.18, a relative viability ([17]; first compound 0.253 µM) of 1.2 and a relative viability ([17]; first compound 0.8 µM) of 0.924. It also gave a relative viability ([17]; first compound 2.53 µM) of 0.924, a relative viability ([17]; first compound 8 µM) of 0.669 and a relative viability ([18]; first compound 0.08 µM) of 0.967. The relative viability ([18]; first compound 0.253 µM) was 0.734, the relative viability ([18]; first compound 0.8 µM) was 0.934 and the relative viability ([18]; first compound 2.53 µM) was 0.809. The relative viability ([18]; first compound 8 µM) was 0.746, the relative viability ([19]; first compound 0.08 µM) was 0.786 and the relative viability ([19]; first compound 0.253 µM) was 0.711. The relative viability ([19]; first compound 0.8 µM) was 0.704, the relative viability ([19]; first compound 2.53 µM) was 0.704 and the relative viability ([19]; first compound 8 µM) was 0.698. The relative viability ([20]; first compound 0.08 µM) was 1.18, the relative viability ([20]; first compound 0.253 µM) was 1.07 and the relative viability ([20]; first compound 0.8 µM) was 0.954. The relative viability ([20]; first compound 2.53 µM) was 0.822, the relative viability ([20]; first compound 8 µM) was 0.829 and the relative viability ([21]; first compound 0.08 µM) was 0.592. It also gave a relative viability ([21]; first compound 0.253 µM) of 0.716, a relative viability ([21]; first compound 0.8 µM) of 0.621 and a relative viability ([21]; first compound 2.53 µM) of 0.365. For the same compound, the relative viability ([21]; first compound 8 µM) was 0.464, the relative viability ([22]; first compound 0.08 µM) was 0.938 and the relative viability ([22]; first compound 0.253 µM) was 1.01. The relative viability ([22]; first compound 0.8 µM) was 1.06, the relative viability ([22]; first compound 2.53 µM) was 0.847 and the relative viability ([22]; first compound 8 µM) was 0.922.

Source: the supplement of paper PMC10307832
